Here are results for one molecule from patent US10345295B2, “Device and method for point-of-care diagnostics and antibiotic resistance identification, and applications thereof” (CORNELL UNIVERSITY, priority 2015, dated 2019).

The subject of the assay is attenuated E. coli K12 strain with a kanamycin resistance gene. The assay is described as follows: colorimetric phenotypic antibiotic susceptibility test (phenol red) in capillary tubes. The class given is cell-based. The following applies: bacteria culture incubated in capillary tubes with added antibiotic; LB media, 0.05% phenol red; read at the 4-hour mark. As to the method:
According to an embodiment, a colorimetric phenotypic testing approach was utilized to assess the antibiotic susceptibility of an attenuated E. coli K12 strain. The pH indicator phenol red was used to provide a phenotypic indication of bacterial growth. For colorimetric phenotypic testing approach, bacterial growth tests were conducted with small sample volumes in a PDMS microchip. The E. coli strain with a kanamycin resistance gene as a selection marker was first streaked and incubated overnight on LB agar plates containing kanamycin. Single colonies were subsequently picked and propagated in liquid bulk culture. Following overnight bulk culture to stationary phase, small volumes (˜1 μL) of culture were separately incubated on the PDMS chip in wells each containing a 19 μL mixture of fresh LB media, 0.05% phenol red, and the antibiotics kanamycin (control) and ampicillin (test). The metabolic activity of viable bacteria leads to an accumulation of organic acids in the growth media, which causes the phenol red to change in color from red to yellow, which is expected for the control group as the E. coli stain is kanamycin resistant.
A similar experiment was conducted by incubating the bacteria culture in capillary tubes designed to hold microliters of liquid. […]

Take `CC1(C)S[C@@H]2[C@H](NC(=O)[C@H](N)c3ccccc3)C(=O)N2[C@H]1C(=O)O` [ampicillin]: the “color change of phenol red pH indicator (phenotypic indication of bacterial growth)” value was “No color change”.
